Experimental data taken from patent EP0218688B1, “DIHALO-STATINE SUBSTITUTED RENIN INHIBITORS” (THE UPJOHN COMPANY, priority 1985, dated 1986).

Molecular target: T1, renin (Homo sapiens, UniProt P00797)
T1 construct: Lyophilized human plasma with 0.1% EDTA is obtained from New England Nuclear; tissue New England Nuclear Plasma Renin Activity Control; host or cells: human plasma (lyophilized, reconstituted)
T1 sequence (P00797 67-406): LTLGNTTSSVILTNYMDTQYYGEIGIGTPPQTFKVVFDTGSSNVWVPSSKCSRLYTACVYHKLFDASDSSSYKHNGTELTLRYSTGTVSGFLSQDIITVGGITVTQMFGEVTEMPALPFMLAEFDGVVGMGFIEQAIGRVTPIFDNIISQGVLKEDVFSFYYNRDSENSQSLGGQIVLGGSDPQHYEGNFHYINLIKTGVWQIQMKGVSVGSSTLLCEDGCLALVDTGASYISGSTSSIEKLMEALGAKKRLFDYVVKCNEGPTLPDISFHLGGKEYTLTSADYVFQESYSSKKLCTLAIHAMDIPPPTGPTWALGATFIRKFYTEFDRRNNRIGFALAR
Test: GAMMACOAT plasma renin activity (PRA) radioimmunoassay, inhibition of angiotensin I generation in reconstituted human plasma
Type: biochemical
Conditions: I50 of RIP compared with I50 of the compound, RIP value of the same assay day
Experimental: Lyophilized human plasma with 0.1% EDTA is obtained from New England Nuclear, North Billerica, Massachusetts 01862 as "Plasma Renin Activity Control". This lyophilized plasma is reconstituted, on the day of the assay, with cold sterile distilled water according to directions on the vial. The plasma renin activity (PRA) of the reconstituted plasma is assayed with "GAMMACOAT [^125 Plasma Renin Activity Radioimmunoassay Kit" supplied by Clinical Assays, a Division of Travenol Laboratories, Inc., Cambridge, Massachusetts 02139. The procedure used with these kits is carried out essentially as described in the literature which accompanies them. […]
In the case of renin inhibitory peptide (RIP), […] of the 4°C. blank is added to a GAMMACOAT® tube. […] The tubes are then counted in a gamma counter. The results of the RIP are evaluated with the Rodbard Radioimmunoassay Program and the plasma renin activity (PRA) is expressed as […]. […] In addition to l50 values, relative potencies are also calculated. A relative potency is determined by comparing the 150 of RIP to the l50 of the compound. However, it must be emphasized that relative potencies are calculated from the l50 obtained for RIP on the day the compound is assayed and not from the average 15o for RIP.

| relative potency | Compound |
| --- | --- |
| 6100 | CC[C@H](C)[C@H](NC(=O)C(F)(F)C(=O)C(CC(C)C)NC(=O)[C@H](Cc1c[nH]cn1)NC(=O)[C@H](Cc1ccccc1)NC(=O)OC(C)(C)C)C(=O)NCc1ccccn1 (stereo partly drawn) [N-tert-Butyloxycarbonyl-L-phenylalanyl-L-histidyl-2,2-difluoro-statonyl-L-isoleucyl-2-pyridylmethylamide] |
| 1,000 | CC[C@H](C)[C@H](NC(=O)C(F)(F)[C@H](O)[C@H](CC(C)C)NC(=O)[C@H](Cc1c[nH]cn1)NC(=O)[C@H](Cc1ccccc1)NC(=O)OC(C)(C)C)C(=O)NCc1ccccn1 [N-tert-Butyloxycarbonyl-L-phenylalanyl-L-histidyl-2,2-difluoro-statyl-L-isoleucyl-2-pyridylmethylamide] |
